A short description of series [1]: Stability of salts on storage at room temperature and 80% relative humidity (XRPD). It counts as physicochemical. The settings on record: for changes in the XRPD pattern after storage: 7 days at room temperature and 80% relative humidity. How it is done:
Each of the salts obtained was characterized by X-ray powder diffraction (XRPD), Thermogravimetric analysis (TGA), and Differential Scanning calorimetry (DSC). Furthermore, the stabilities of the sodium, potassium, L-Arginine and L-Lysine salts were tested by storage for 7 days at room temperature and 80% relative humidity.

A short description of series [2]: Thermodynamic solubility of salts in water. The series is classed as physicochemical. As to conditions: for Solubility: 37° C., pH 6.8-7.4, stirring 500 rpm, 24 hours. As for the experimental part:
Each of the sodium, potassium, L-Arg and L-Lys salts prepared as described above was dissolved in water at a temperature of 37° C., pH 6.8-7.4 at a stirring rate of 500 rpm for 24 hours.

For orientation: Solubility means how much of the substance goes into solution per volume. For `O=C(O)C1(c2ccc(-c3ccc(Cl)c(Cl)c3)c(F)c2)CC1` [L-Arginine, 1-(3′,4′-dichloro-2-fluorobiphenyl-4-yl)cyclopropanecarboxylic acid], in series [1], the “changes in the XRPD pattern after storage” value (from here on “changes in the XRPD pattern”) is “No changes” and the “stability when stored under conditions of high humidity (in words)” value (“stability when stored under conditions” for short) was “good stability”. For the same compound, in series [2], the “solubility in water (in words)” value was “excellent solubility” and the “Solubility” value is 15.2 mg/mL.
For `O=C(O)C1(c2ccc(-c3ccc(Cl)c(Cl)c3)c(F)c2)CC1` [L-Lysine, 1-(3′,4′-dichloro-2-fluorobiphenyl-4-yl)cyclopropanecarboxylic acid], in series [1], the “changes in the XRPD pattern” value was “No changes” and the “stability when stored under conditions” value was “good stability”. For the same compound, in series [2], the “solubility in water (in words)” value is listed as “excellent solubility” and the “Solubility” value was 36.6 mg/mL.
On to `O=C(O)C1(c2ccc(-c3ccc(Cl)c(Cl)c3)c(F)c2)CC1` [Potassium, 1-(3′,4′-dichloro-2-fluorobiphenyl-4-yl)cyclopropanecarboxylic acid], for which, in series [1], the “changes in the XRPD pattern” value is “No changes” and the “stability when stored under conditions” value is reported as “good stability”. Moreover, in series [2], the “solubility in water (in words)” value was “excellent solubility” and the “Solubility” value is 6.3 mg/mL.
As for `O=C(O)C1(c2ccc(-c3ccc(Cl)c(Cl)c3)c(F)c2)CC1` [Sodium, 1-(3′,4′-dichloro-2-fluorobiphenyl-4-yl)cyclopropanecarboxylic acid], in series [1], the “changes in the XRPD pattern” value was “No changes” and the “stability when stored under conditions” value is reported as “good stability”. Moreover, in series [2], the “solubility in water (in words)” value is “excellent solubility” and the “Solubility” value stood at 20.4 mg/mL.

(Values after patent US20160193165A1, “NOVEL POLYMORPHS AND SALTS” (CHIESI FARMACEUTICI S.p.A., priority 2010, published 2016).)
